# Results published in US7476685B2, “Pyridine carboxamide derivatives and their use as pesticides” (Merial Limited, priority 2002, dated 2009).
# Columns and labels:
# [1] = tested on: black bean aphids (Aphis fabae); experiment: Method A: field bean plants and black bean aphids dipped into aqueous solution of the formulated preparation; type: in vivo; conditions: 100 ppm (content of active compound), plants (Vicia faba) and aphids dipped 5 seconds, after 3 and 6 days of storage, read-out: mortality among the aphids
# Protocol: Germinated field bean seeds (Vicia faba) with seed roots were transferred into brown glass bottles filled with tap water and then populated with about 100 black bean aphids (Aphis fabae). Plants and aphids were then dipped into an aqueous solution of the formulated preparation to be examined for 5 seconds. After they had drained, plants and animals were stored in a climatized chamber (16 hours of light/day, 25° C., 40-60% relative atmospheric humidity). After 3 and 6 days of storage, the effect of the preparation on the aphids was determined.
# [2] = tested on: black bean aphids (Aphis fabae); experiment: Method B: root-systemic action against black bean aphids on field bean, preparation pipetted into the water; type: in vivo; conditions: 10 ppm (content of active compound), 4 ml solution pipetted into bottle with Vicia faba roots, after 3 and 6 days of storage, read-out: mortality among the aphids, by root-systemic action
# Protocol: Germinated field bean seeds (Vicia faba) with seed roots were transferred into brown glass bottles filled with tap water. Four milliliters of an aqueous solution of the formulated preparation to be examined were pipetted into the brown glass bottle. The field bean was then heavily populated with about 100 black bean aphids (Aphis fabae). Plants and aphids were then stored in a climatized chamber (16 hours of light/day, 25° C., 40-60% relative atmospheric humidity). After 3 and 6 days of storage, the root-systemic effect of the preparation on the aphids was determined.
SMILES,mortality at 100 ppm [1],mortality at 10 ppm [2]
"C=CCN(C(=O)c1cnccc1C(F)(F)F)C(=O)N(C)OC [Compound E-85, 1-methyl-1-methoxy-3-allyl-3-(4-trifluoromethyl-3-pyridylcarbonyl)urea]",≥ 50%,≥ 80%
"CON(C)C(=O)NC(=O)c1cnccc1C(F)(F)F [Compound A-313, 1-methyl-1-methoxy-3-(4-trifluoromethyl-3-pyridylcarbonyl)urea]",,≥ 80%
"O=C(NC(=O)N(CCO)Cc1ccccc1)c1cnccc1C(F)(F)F [Compound A-862, 1-benzyl-1-(2-hydroxyethyl)-3-(4-trifluoromethyl-3-pyridylcarbonyl)urea]",≥ 50%,≥ 80%
"O=C(NC(=S)OCC(F)(F)F)c1cnccc1C(F)(F)F [Compound X-45, 2,2,2-trifluoroethyl N-(4-trifluoromethyl-3-pyridylcarbonyl)thiocarbamate]",≥ 50%,≥ 80%
"CC(C)N(O)C(=O)NC(=O)c1cnccc1C(F)(F)F [Compound A-540, 1-hydroxyl-1-isopropyl-3-(4-trifluoromethyl-3-pyridylcarbonyl)urea]",≥ 50%,≥ 80%
"CC(C)N1OCCN(C(=O)c2cnccc2C(F)(F)F)C1=O [Compound U-3, 2-isopropyl-4-(4-trifluoromethyl-3-pyridylcarbonyl)-perhydro-1,2,4-oxadiazin-3-one]",≥ 50%,≥ 80%
"CN(C(=S)NC(=O)c1cnccc1C(F)(F)F)c1ccccc1 [Compound B-349, 1-methyl-1-phenyl-3-(4-trifluoromethyl-3-pyridylcarbonyl)thiourea]",≥ 50%,≥ 80%
